Test results reported in patent publication US9850283B2, “Macrocyclic inhibitors of the PD-1/PD-L1 and CD80(B7-1)/PD-L1 protein/protein interactions” (BRISTOL-MYERS SQUIBB COMPANY, priority 2013, dated 2017).
pIC50: −log10 of the molar value. Read-outs that look alike come from different tables or passages of the source. Positions of bridges follow the written chain, without caps; N, C: chain ends. Non-standard residues stand in square brackets, D forms with d. Residues, ends and D or L forms follow the SMILES beside them. *: point of attachment. Pro(cis-4-Ph) = O=C(O)[C@@H]1C[C@H](c2ccccc2)CN1; Ala(4-thiazolyl) = N[C@@H](Cc1cscn1)C(=O)O; Bip = N[C@@H](Cc1ccc(-c2ccccc2)cc1)C(=O)O; 1Nal = N[C@@H](Cc1cccc2ccccc12)C(=O)O; Cyclopentanecarbonyl = O=C(C1CCCC1)*; Cyclobutanecarbonyl = O=C(C1CCC1)*; hPhe = N[C@@H](CCc1ccccc1)C(=O)O; NMeNle = CCCC[C@H](NC)C(=O)O; NMeA = CN[C@@H](C)C(=O)O; Dap = NC[C@H](N)C(=O)O; Sar = CNCC(=O)O

Experiments:
Human PD-L1/PD-1 = biological target: T1, Human PD-L1/PD-1 (Homo sapiens, UniProt Q9NZQ7); experiment: HTRF PD-1-Ig/PD-L1-His binding assay (human PD-L1)
T1 construct: made in house; host or cells: HEK293T
T1 sequence (Q9NZQ7 with tags, fused parts or gaps): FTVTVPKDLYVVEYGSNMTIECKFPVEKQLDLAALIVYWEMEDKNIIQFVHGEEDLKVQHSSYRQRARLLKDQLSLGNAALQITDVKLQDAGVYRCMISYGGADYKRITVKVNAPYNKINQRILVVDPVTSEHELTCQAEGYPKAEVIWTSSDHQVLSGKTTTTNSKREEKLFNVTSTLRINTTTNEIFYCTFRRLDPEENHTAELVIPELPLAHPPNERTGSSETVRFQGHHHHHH
In short: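 Ig- and His-fused extracellular PD-1/PD-L1 binding in BSA/Tween-20 dPBS. HTRF with Eu anti-Ig (1 nM final) and APC anti-His (20 nM final).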

[1] = biological target: T2, LK35.2-hPD-L1 cells / PE-labeled PD-1-Ig (Homo sapiens, UniProt Q9NZQ7); experiment: LK35.2-hPD-L1 cell binding high-content screening assay; assay type: cell-based
T2 construct: expressed in transfected cells; host or cells: LK35.2 mouse B cell line
T2 sequence (Q9NZQ7 19-290): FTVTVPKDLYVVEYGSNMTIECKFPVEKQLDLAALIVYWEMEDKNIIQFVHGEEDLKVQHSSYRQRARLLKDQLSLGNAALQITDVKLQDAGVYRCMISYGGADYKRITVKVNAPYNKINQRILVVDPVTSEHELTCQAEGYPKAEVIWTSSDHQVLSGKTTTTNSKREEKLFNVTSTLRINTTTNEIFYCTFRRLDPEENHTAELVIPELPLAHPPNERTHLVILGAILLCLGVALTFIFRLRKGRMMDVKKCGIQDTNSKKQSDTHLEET
Protocol: LK35.2-hPD-L1 Cell Binding High-Content Screening Assay. Phycoerythrin (PE) was covalently linked to the Ig epitope tag of human PD-1-Ig and fluorescently-labeled PD-1-Ig was used for binding studies with a mouse B cell line (LK35.2) stably over-expressing human PD-L1 (LK35.2-hPD-L1). Briefly, 3×10^3 LK35.2-hPD-L1 cells were seeded into 384 well plates in 20 ul of RPMI supplemented with 10% fetal calf serum and cultured overnight. 125 nl of compound was added to cells, followed by 5 ul of PE-labeled PD-1-Ig (1 nM final), diluted in RPMI supplemented with 10% fetal calf serum, followed by incubation at 37° C. for 1 h. […] Cells were washed 3× in 100 ul of dPBS followed by final addition of 15 ul of dPBS. Data was collected and processed using a Cell Insight NXT High Content Imager and associated software.

[2] = cluster symbol, read-out: HTRF IC50 cluster
[3] = cell binding assay, cell line not given, cluster symbol, read-out: CBA IC50 cluster
[4] = cluster symbol, cell line of CBA not given (LK35.2-hPD-L1 or 293T-hPD-L1), read-out: CBA IC50 cluster

Structure (SMILES)	pIC50 (Human PD-L1/PD-1; [2])	pIC50 [1, 4]	also measured
CCCC[C@H]1C(=O)N(C)CC(=O)N[C@@H](CC(=O)O)C(=O)N[C@@H](C(C)C)C(=O)N(C)[C@@H](Cc2ccccc2)C(=O)N[C@@H](Cc2ccc(O)cc2)C(=O)N(C)CC(=O)N[C@@H](Cc2c[nH]c3ccccc23)C(=O)N[C@@H](Cc2ccc(O)cc2)C(=O)N[C@@H](CC(C)C)C(=O)N[C@H](C(=O)NCC(N)=O)CSCC(=O)N[C@@H](Cc2ccccc2)C(=O)N(C)[C@@H](Cc2cccc3ccccc23)C(=O)N1C (single isomer, unassigned) [Example 3585-A]	< 7.52		pIC50 [1, 3]: < 7.13
CCCC[C@H]1C(=O)N(C)CC(=O)N[C@@H](CC(=O)O)C(=O)N[C@@H](C(C)C)C(=O)N(C)[C@@H](Cc2ccccc2)C(=O)N[C@@H](Cc2ccc(O)cc2)C(=O)N(C)CC(=O)N[C@@H](Cc2c[nH]c3ccccc23)C(=O)N[C@@H](Cc2ccc(O)cc2)C(=O)N[C@@H](CC(C)C)C(=O)N[C@H](C(=O)NCC(N)=O)CSCC(=O)N[C@@H](Cc2ccccc2)C(=O)N(C)[C@@H](Cc2cccc3ccccc23)C(=O)N1C (single isomer, unassigned) [Example 3585-B]	7.52 to 8.17		pIC50 [1, 3]: 7.14 to 8.32
CCCC[C@H]1C(=O)N(C)CC(=O)N[C@@H](CC(=O)O)C(=O)N[C@@H](C(C)C)C(=O)N(C)[C@@H](Cc2ccccc2)C(=O)N[C@@H](Cc2ccc(O)cc2)C(=O)N(C)CC(=O)N[C@@H](C)C(=O)N[C@@H](Cc2ccc(O)cc2)C(=O)N[C@@H](CC(C)C)C(=O)N[C@@H](C(=O)NCC(N)=O)CSCC(=O)N[C@@H](Cc2ccccc2)C(=O)N(C)[C@@H](Cc2ccccc2)C(=O)N1C [Example 1001] (HELM PEPTIDE1{[O=C(C[*:3])[*:2]].F.[meF].[CCCC[C@@H](C(=O)[*:2])N(C)[*:1]].[Sar].D.V.[meF].Y.[Sar].A.Y.L.[dC].G.[am]}$PEPTIDE1,PEPTIDE1,1:R3-14:R3$$$V2.0)	< 7.52	< 7.13	
CCCC[C@H]1C(=O)N(C)[C@@H](CCCC)C(=O)N[C@@H](CCCNC(=N)N)C(=O)N[C@@H](C(=O)NCC(N)=O)CSCC(=O)N[C@@H](Cc2ccccc2)C(=O)N(C)[C@@H](C)C(=O)N[C@@H](CC(N)=O)C(=O)N2CCC[C@H]2C(=O)N[C@@H](Cc2cnc[nH]2)C(=O)N[C@@H](CC(C)C)C(=O)N(C)CC(=O)N[C@@H](Cc2c[nH]c3ccccc23)C(=O)N[C@@H](CO)C(=O)N[C@@H](Cc2cccc3ccccc23)C(=O)N1C [Example 1002] ({CH2CO}-F[NMeA]NPHL[Sar]WS[1Nal][NMeNle][NMeNle]R[dC]G-NH2; thioether N-14)	7.52 to 8.17	7.14 to 8.32	
CCCC[C@H]1C(=O)N(C)[C@@H](Cc2ccccc2)C(=O)N[C@@H](CCCNC(=N)N)C(=O)N[C@H](C(=O)NCC(N)=O)CSCC(=O)N[C@@H](Cc2ccccc2)C(=O)N(C)[C@@H](C)C(=O)N[C@@H](CC(N)=O)C(=O)N2CCC[C@H]2C(=O)N[C@@H](Cc2cnc[nH]2)C(=O)N[C@@H](CC(C)C)C(=O)N(C)CC(=O)N[C@@H](Cc2c[nH]c3ccccc23)C(=O)N[C@@H](CO)C(=O)N[C@@H](Cc2c[nH]c3ccccc23)C(=O)N1C [Example 1003] (HELM PEPTIDE1{[O=C(C[*:3])[*:2]].F.[meA].N.P.H.L.[Sar].W.S.W.[CCCC[C@@H](C(=O)[*:2])N(C)[*:1]].[meF].R.C.G.[am]}$PEPTIDE1,PEPTIDE1,1:R3-15:R3$$$V2.0)	< 7.52	< 7.13	
CCCC[C@H]1C(=O)N(C)[C@@H](CCCC)C(=O)N[C@@H](CCCNC(=N)N)C(=O)N[C@H](C(=O)NCC(N)=O)CSCC(=O)N[C@@H](Cc2ccccc2)C(=O)N(C)[C@@H](C)C(=O)N[C@@H](CC(N)=O)C(=O)N2CCC[C@H]2C(=O)N[C@@H](Cc2c[nH]cn2)C(=O)N[C@@H](CC(C)C)C(=O)N(C)CC(=O)N[C@@H](Cc2c[nH]c3ccccc23)C(=O)N[C@@H](CO)C(=O)N[C@@H](Cc2c[nH]cn2)C(=O)N1C [Example 1004] ({CH2CO}-F[NMeA]NPHL[Sar]WSH[NMeNle][NMeNle]RCG-NH2; thioether N-14)	< 7.52	< 7.13	
CCCC[C@H]1C(=O)N[C@@H](CCCNC(=N)N)C(=O)N[C@H](C(=O)NCC(N)=O)CSCC(=O)N[C@@H](Cc2ccccc2)C(=O)N(C)[C@@H](C)C(=O)N[C@@H](CC(N)=O)C(=O)N2CCC[C@H]2C(=O)N[C@@H](Cc2cnc[nH]2)C(=O)N[C@@H](CC(C)C)C(=O)N(C)CC(=O)N[C@@H](Cc2c[nH]c3ccccc23)C(=O)N[C@@H](CO)C(=O)N[C@@H](Cc2c[nH]c3ccccc23)C(=O)N2CCC[C@H]2C(=O)N1C [Example 1005] (HELM PEPTIDE1{[O=C(C[*:3])[*:2]].F.[meA].N.P.H.L.[Sar].W.S.W.P.[CCCC[C@@H](C(=O)[*:2])N(C)[*:1]].R.C.G.[am]}$PEPTIDE1,PEPTIDE1,1:R3-15:R3$$$V2.0)	< 7.52	< 7.13	
CCCC[C@H]1C(=O)N[C@@H](CCCNC(=N)N)C(=O)N[C@H](C(=O)NCC(N)=O)CSCC(=O)N[C@@H](Cc2ccccc2)C(=O)N(C)[C@@H](C)C(=O)N[C@@H](CC(N)=O)C(=O)N2CCC[C@H]2C(=O)N[C@@H](Cc2cnc[nH]2)C(=O)N[C@@H](CC(C)C)C(=O)N(C)CC(=O)N[C@@H](Cc2c[nH]c3ccccc23)C(=O)N[C@@H](CO)C(=O)N[C@@H](Cc2c[nH]c3ccccc23)C(=O)N[C@@H](CCc2ccccc2)C(=O)N1C [Example 1006] ({CH2CO}-F[NMeA]NPHL[Sar]WSW[hPhe][NMeNle]RCG-NH2; thioether N-14)	< 7.52	< 7.13	
CCCC[C@H]1C(=O)N(C)[C@@H](CCCC)C(=O)N[C@@H](CCCNC(=N)N)C(=O)N[C@H](C(=O)NCC(N)=O)CSCC(=O)N[C@@H](Cc2ccccc2)C(=O)N(C)[C@@H](C)C(=O)N[C@@H](CC(N)=O)C(=O)N2CCC[C@H]2C(=O)N[C@@H](Cc2cnc[nH]2)C(=O)N[C@@H](CC(C)C)C(=O)N(C)CC(=O)N[C@@H](Cc2ccc(-c3ccccc3)cc2)C(=O)N[C@@H](CO)C(=O)N[C@@H](Cc2c[nH]c3ccccc23)C(=O)N1C [Example 1007] ({CH2CO}-F[NMeA]NPHL[Sar][Bip]SW[NMeNle][NMeNle]RCG-NH2; thioether N-14)	< 7.52	< 7.13	
CCCC[C@H]1C(=O)N(C)[C@@H](CCCC)C(=O)N[C@@H](CCCNC(=N)N)C(=O)N[C@H](C(=O)NCC(N)=O)CSCC(=O)N[C@@H](Cc2ccccc2)C(=O)N(C)[C@@H](C)C(=O)N[C@@H](CC(N)=O)C(=O)N2CCC[C@H]2C(=O)N[C@@H](Cc2cnc[nH]2)C(=O)N[C@@H](CC(C)C)C(=O)N(C)CC(=O)N[C@@H](Cc2cscn2)C(=O)N[C@@H](CO)C(=O)N[C@@H](Cc2c[nH]c3ccccc23)C(=O)N1C [Example 1010] ({CH2CO}-F[NMeA]NPHL[Sar][Ala(4-thiazolyl)]SW[NMeNle][NMeNle]RCG-NH2; thioether N-14)			pIC50 (Human PD-L1/PD-1; read-out: HTRF IC50 value): < 5.00; pIC50 ([1]; cell line of CBA not given (LK35.2-hPD-L1 or 293T-hPD-L1), read-out: CBA IC50 value): < 5.00
CCCC[C@H]1C(=O)N[C@@H](CCCNC(=N)N)C(=O)N[C@H](C(=O)NCC(N)=O)CSCC(=O)N[C@@H](Cc2ccccc2)C(=O)N(C)[C@@H](C)C(=O)N[C@@H](CC(N)=O)C(=O)N2CCC[C@H]2C(=O)N[C@@H](Cc2cnc[nH]2)C(=O)N[C@@H](CC(C)C)C(=O)N(C)CC(=O)N[C@@H](Cc2c[nH]c3ccccc23)C(=O)N[C@@H](CO)C(=O)N[C@@H](Cc2c[nH]c3ccccc23)C(=O)N[C@@H](CNC(=O)C2CCC2)C(=O)N1C [Example 1011] ({CH2CO}-F[NMeA]NPHL[Sar]WSW[Dap](Cyclobutanecarbonyl)[NMeNle]RCG-NH2; thioether N-14)	< 7.52	< 7.13	
CCCC[C@H]1C(=O)N[C@@H](CCCNC(=N)N)C(=O)N[C@H](C(=O)NCC(N)=O)CSCC(=O)N[C@@H](Cc2ccccc2)C(=O)N(C)[C@@H](C)C(=O)N[C@@H](CC(N)=O)C(=O)N2CCC[C@H]2C(=O)N[C@@H](Cc2cnc[nH]2)C(=O)N[C@@H](CC(C)C)C(=O)N(C)CC(=O)N[C@@H](Cc2c[nH]c3ccccc23)C(=O)N[C@@H](CO)C(=O)N[C@@H](Cc2c[nH]c3ccccc23)C(=O)N[C@@H](CNC(=O)C2CCCC2)C(=O)N1C [Example 1012] ({CH2CO}-F[NMeA]NPHL[Sar]WSW[Dap](Cyclopentanecarbonyl)[NMeNle]RCG-NH2; thioether N-14)	< 7.52	< 7.13	
CCCC[C@H]1C(=O)N(C)[C@@H](CCCC)C(=O)N[C@@H](CCC(=O)O)C(=O)N[C@H](C(=O)NCC(N)=O)CSCC(=O)N[C@@H](Cc2ccc(O)cc2)C(=O)N(C)[C@@H](C)C(=O)N[C@@H](CC(=O)O)C(=O)N2CCC[C@H]2C(=O)N[C@@H](Cc2c[nH]cn2)C(=O)N[C@@H](CCCCN)C(=O)N2C[C@@H](c3ccccc3)C[C@H]2C(=O)N[C@@H](Cc2c[nH]c3ccccc23)C(=O)N[C@@H](CCCCN)C(=O)N[C@@H](Cc2c[nH]c3ccccc23)C(=O)N1C [Example 13006] ({CH2CO}-Y[NMeA]DPHK[Pro(cis-4-Ph)]WKW[NMeNle][NMeNle]ECG-NH2; thioether N-14)			pIC50 ([1]; cell binding assay, cell line not given, value given instead of cluster, read-out: CBA IC50 value): 8.83
